According to article PMC10023787, “Trio-pharmacophore DNA-encoded chemical library for simultaneous selection of fragments and linkers” (Nature Communications, 2023):

How the values were obtained:
[1] = target: T1, MMP-2 (Homo sapiens, UniProt P08253); test: MMP-2 inhibition assay (fluorogenic peptide substrate); type: biochemical; conditions: for IC50: mean ± SE, n.d: not detected, Fig. 5d unit inferred, µM, read-out: IC50
T1 construct: purchased Sino Biological 10082-HNAH
T1 sequence (P08253 110-660): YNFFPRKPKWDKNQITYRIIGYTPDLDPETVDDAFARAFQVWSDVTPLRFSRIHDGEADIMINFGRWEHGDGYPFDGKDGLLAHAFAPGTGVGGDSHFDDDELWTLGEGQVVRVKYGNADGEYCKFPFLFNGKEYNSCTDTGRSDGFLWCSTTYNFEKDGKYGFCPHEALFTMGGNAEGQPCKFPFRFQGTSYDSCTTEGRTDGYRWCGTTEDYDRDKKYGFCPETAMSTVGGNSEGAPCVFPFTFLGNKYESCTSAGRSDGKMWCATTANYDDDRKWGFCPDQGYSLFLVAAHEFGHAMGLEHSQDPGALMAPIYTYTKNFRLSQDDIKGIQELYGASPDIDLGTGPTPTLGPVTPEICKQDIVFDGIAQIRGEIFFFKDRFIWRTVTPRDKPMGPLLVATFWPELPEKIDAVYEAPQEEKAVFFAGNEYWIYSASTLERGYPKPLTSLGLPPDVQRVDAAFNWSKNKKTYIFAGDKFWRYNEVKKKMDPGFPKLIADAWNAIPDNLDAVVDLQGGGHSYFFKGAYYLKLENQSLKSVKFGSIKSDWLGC
Procedure: (§1) The inhibition by the small molecule compounds against MMP-2/MMP-9 was measured using an assay probing the enzyme proteolytic activity on the substrate DNP-Pro-Leu-Gly-Met-Trp-Ser-Arg (Enzo Life Sciences, USA). All assays were performed in the assay buffer containing 50 mM Tris, 100 mM NaCl. 5 mM CaCl2, and 0.1% Brij 35, pH 7.5. Human proMMP-2 and proMMP-9 were purchased from Sino biological (Germany). The proMMPs were activated by 1 mM APMA in the assay buffer at 37 °C for 2 h. After activation, MMP-2 was diluted to 6.5 nM of final assay concentration, and MMP-9 was diluted by the buffer to reach 10 nM of final assay concentration. In each well, 49 μl of enzyme solution was incubated with 1 μl of compounds of series of concentration (nM-mM in DMSO) at RT for 30 min. 2 μl of the FRET substrate was added right before the measurement at a final concentration of 25 μM. The rate of hydrolysis was monitored by quantifying the emission at 360 nm (ex: 280 nm). The emission was measured with intervals of the 30 s for 30 min with Synergy H1 Plate Reader (Agilent, USA). The measurements were done in triplicate. […] Then, curves were plotted as a function of the concentration of the inhibitor against the relative enzyme activity. Vmax was derived from the detected […] signal for each concentration and logistic fitting was performed to obtain IC50 values using Origin 2019b (OriginLab).

[2] = target: T2, MMP-9 (Homo sapiens, UniProt P14780); test: MMP-9 inhibition assay (fluorogenic peptide substrate); type: biochemical; design: remaining enzyme activity (% of control): scale not given here; conditions: for IC50: mean ± SE, n.d: not detected, Fig. 5e prints no unit, µM, read-out: IC50
T2 construct: purchased Sino Biological 10327-HNAH
T2 sequence (P14780 107-707 limits assumed): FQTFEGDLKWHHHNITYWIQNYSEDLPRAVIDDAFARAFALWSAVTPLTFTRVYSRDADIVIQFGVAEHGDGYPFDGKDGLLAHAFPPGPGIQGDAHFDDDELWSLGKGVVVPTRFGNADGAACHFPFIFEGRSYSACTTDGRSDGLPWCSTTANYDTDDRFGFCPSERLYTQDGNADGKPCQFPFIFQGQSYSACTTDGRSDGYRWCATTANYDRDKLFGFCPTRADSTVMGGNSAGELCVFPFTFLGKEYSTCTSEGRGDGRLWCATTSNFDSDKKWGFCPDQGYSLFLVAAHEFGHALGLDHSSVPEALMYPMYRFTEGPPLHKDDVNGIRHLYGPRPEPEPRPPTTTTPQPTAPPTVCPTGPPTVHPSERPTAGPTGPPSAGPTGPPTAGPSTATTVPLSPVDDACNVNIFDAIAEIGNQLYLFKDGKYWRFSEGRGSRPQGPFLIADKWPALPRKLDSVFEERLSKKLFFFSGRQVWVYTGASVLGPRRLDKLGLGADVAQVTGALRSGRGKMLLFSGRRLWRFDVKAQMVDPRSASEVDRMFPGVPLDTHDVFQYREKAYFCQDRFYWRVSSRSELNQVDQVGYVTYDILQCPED
Procedure: as §1

Row | SMILES | remaining activity (%) ([1]; MMP-2, concentration 0.12 µM) | remaining activity (%) ([1]; MMP-2, concentration 0.49 µM) | remaining activity (%) ([1]; MMP-2, concentration 1.95 µM) | remaining activity (%) ([1]; MMP-2, concentration 7.81 µM) | remaining activity (%) ([1]; MMP-2, concentration 31.25 µM) | remaining activity (%) ([1]; MMP-2, concentration 125.00 µM) | remaining activity (%) ([1]; MMP-2, concentration 500.00 µM) | IC50 [1] | remaining enzyme activity (% of control) ([2]; MMP-9, concentration 0.12 µM) | remaining enzyme activity (% of control) ([2]; MMP-9, concentration 0.49 µM) | remaining enzyme activity (% of control) ([2]; MMP-9, concentration 1.95 µM) | remaining enzyme activity (% of control) ([2]; MMP-9, concentration 7.81 µM) | remaining enzyme activity (% of control) ([2]; MMP-9, concentration 31.25 µM) | remaining enzyme activity (% of control) ([2]; MMP-9, concentration 125.00 µM) | remaining enzyme activity (% of control) ([2]; MMP-9, concentration 500.00 µM) | IC50 [2] | also measured
1 | Cn1c(O)nc2cc(C(=O)NCCCCCCCCNC(=O)Cn3cnc4c(oc5ccccc54)c3=O)cnc21 [182+826 Linker 4] | 92.61 | 95.31 | 84.32 | 92.35 | 84.58 | 82.25 | 42.45 | 439 ± 56.5 µM |  |  |  |  |  |  |  |  | remaining enzyme activity (% of control) ([2]; MMP-9, concentration 0.13 µM): 96.35; remaining enzyme activity (% of control) ([2]; MMP-9, concentration 0.50 µM): 93.10; remaining enzyme activity (% of control) ([2]; MMP-9, concentration 2.01 µM): 95.02; remaining enzyme activity (% of control) ([2]; MMP-9, concentration 8.03 µM): 95.39; remaining enzyme activity (% of control) ([2]; MMP-9, concentration 128.50 µM): 75.89; remaining enzyme activity (% of control) ([2]; MMP-9, concentration 514.00 µM): 61.85
2 | Cn1c(O)nc2cc(C(=O)NCCOCCOCCNC(=O)Cn3cnc4c(oc5ccccc54)c3=O)cnc21 [182+826 Linker 10] | 104.96 | 102.80 | 96.45 | 96.46 | 89.20 | 71.67 | 58.28 |  | 94.26 | 94.53 | 79.71 | 87.21 | 75.62 | 66.17 | 43.49 | 283 ± 84.3 µM | 
3 | Cn1c(O)nc2cc(C(=O)NCCCCC=CC(=O)CC(=O)NCCNC(=O)Cn3cnc4c(oc5ccccc54)c3=O)cnc21 [182+826 Linker 12] |  |  |  |  |  |  |  | 62.3 ± 14 µM | 93.35 | 105.08 | 88.98 | 94.00 | 85.67 | 51.95 | 12.28 | 131 ± 24.2 µM | remaining activity (%) ([1]; MMP-2, concentration 0.13 µM): 97.62; remaining activity (%) ([1]; MMP-2, concentration 0.50 µM): 96.92; remaining activity (%) ([1]; MMP-2, concentration 2.01 µM): 91.66; remaining activity (%) ([1]; MMP-2, concentration 8.03 µM): 85.01; remaining activity (%) ([1]; MMP-2, concentration 128.50 µM): 28.27; remaining activity (%) ([1]; MMP-2, concentration 514.00 µM): 12.65
4 | Cn1c(O)nc2cc(C(=O)NCCNC(=O)CSCCNC(=O)Cn3cnc4c(oc5ccccc54)c3=O)cnc21 [182+826 Linker 24] |  |  |  |  |  |  |  |  |  |  |  |  |  |  |  | 281 ± 97.2 µM | remaining activity (%) ([1]; MMP-2, concentration 0.09 µM): 97.26; remaining activity (%) ([1]; MMP-2, concentration 0.36 µM): 110.41; remaining activity (%) ([1]; MMP-2, concentration 1.46 µM): 108.70; remaining activity (%) ([1]; MMP-2, concentration 5.83 µM): 101.42; remaining activity (%) ([1]; MMP-2, concentration 23.31 µM): 109.20; remaining activity (%) ([1]; MMP-2, concentration 93.25 µM): 102.62; remaining activity (%) ([1]; MMP-2, concentration 373.00 µM): 72.08; remaining enzyme activity (% of control) ([2]; MMP-9, concentration 0.09 µM): 91.31; remaining enzyme activity (% of control) ([2]; MMP-9, concentration 0.36 µM): 105.17; remaining enzyme activity (% of control) ([2]; MMP-9, concentration 1.46 µM): 94.51; remaining enzyme activity (% of control) ([2]; MMP-9, concentration 5.83 µM): 85.81; remaining enzyme activity (% of control) ([2]; MMP-9, concentration 23.31 µM): 80.00; remaining enzyme activity (% of control) ([2]; MMP-9, concentration 93.25 µM): 70.35; remaining enzyme activity (% of control) ([2]; MMP-9, concentration 373.00 µM): 44.33
